Legend:
[1] = test system: PM2 DNA; assay: DNA relaxation assay: photoactivated cleavage of plasmid DNA with repair endonucleases; assay type: biochemical; details: 360 nm light; for damage sensitive to FPG protein with increase in the time of irradiation: 0° C., FIG. 5 and FIG. 6; for generation of single strand breaks (SSB) with irradiation time: irradiation for 30 min
Excerpt: Cleavage of plasmid DNA was followed by monitoring the conversion of supercoiled (Form I) to open circular relaxed (Form II) and linear (Form III). Plasmid DNA cleavage is a very sensitive technique and when combined with several repair endonucleases, it can serve as a kind of fingerprint of the species directly responsible for the damage. Induction of one single strand break (SSB) by a compound converts Form I to Form II and the quantification of which indicates its efficiency of DNA cleavage. A DNA relaxation assay was used to quantify SSB and endonuclease-sensitive modifications (Epe, B.; Helger, J.; Wild, D. Carcinogenesis 1989, 10, 2019 and Epe, B.; Mftzel, P.; Adam, W. Chem. Biol. Interactions 1988, 67, 149). This assay makes use of the fact that Form I when converted by either a single strand break (SSB) or the incision by a repair endonuclease leads to Form II, which migrates separately in agarose gel electrophoresis.
Phosphate-buffered (pH 7.0), air-saturated solutions of PM2 DNA (10 μg/mL) at 0° C. were irradiated with 360 nm near-UV irradiation in the presence of various concentrations of acridine-viologen bifunctional molecules represented by compound of formula 1a and 1b (wherein Y=—(CH2)n, wherein n=1-11; R=—MV^2+—(CH2)m—CH32X^⊖ or —Pyr^2+—(CH2)m—CH32X^⊖ and wherein Y=—(CH2)n, wherein n=1-11; R=—MV^2+—(CH2)m—Acr2X^⊖ or —Pyr^2+—(CH2)m—Acr2X^⊖ respectively). Subsequently, the DNA was analyzed for the following types of modifications: (i) DNA single and double strand breaks; (ii) sites of base loss (AP sites) recognized by exonuclease III; (iii) base modifications plus AP sites sensitive to the T4 endonuclease V; (iv) base modifications plus AP sites sensitive to the endonuclease III and (v) base modifications plus AP sites sensitive to formamidopyrimidine-DNA glycosylase (FPG protein).

[2] = test system: calf thymus DNA; assay: DNA binding affinity (association constants) by absorption and fluorescence; details: buffer containing 1 mM EDTA
Procedure: DNA binding efficiency. DNA binding affinities of acridine-viologen bifunctional molecules represented by compound of formula 1a and 1d were analyzed using calf thymus DNA, in NaCl buffer at different salt concentrations (2 mM and 100 mM). Test solutions containing different concentrations of calf thymus DNA in NaCl buffer were incubated at room temperature for one hour to complete the complexation and were analyzed using absorption and fluorescence techniques. […] The binding constants of viologen linked acridines with DNA were determined according to the reported procedures. References may be made to Peacocke, A. R.; Skerrett, J. N. H. Trans. Faraday Soc. 1956, 52, 261; McGhee, J. D.; von Hippel, P. H. J. Mol. Biol. 1974, 86, 469; Scatchard, G. Ann. N.Y. Acad. Sci 1949, 51, 660; Adam, W.; Cadet, J.; Dall'Acqua, F.; Epe, B.; Ramaiah, D.; Saha-Moller, C. R. Angew. Chem. Int. Ed. Engl. 1995, 34, 107). […] Further fluorescence lifetimes of these compounds were also examined in presence and absence of DNA.

Q: What does the source list for `CCCC[n+]1ccc(-c2cc[n+](CCCCCCCCCCCc3c4ccccc4nc4ccccc34)cc2)cc1.[Br-].[Br-]` [1-[11-(acridin-9-yl)undecyl]-1′-butyl-4,4′-bipyridinium dibromide]?
A: damage sensitive to FPG protein with increase in the time of irradiation [1]: increases; generation of single strand breaks (SSB) with irradiation time [1]: No significant increase; K (DNA association constant) ([2]; 2 mM NaCl): 5.24e+06 M⁻¹; K (DNA association constant) ([2]; 100 mM NaCl): 164000 M⁻¹

Q: Which results are given for `CCCC[n+]1ccc(-c2cc[n+](Cc3c4ccccc4nc4ccccc34)cc2)cc1.[Br-].[Br-]` [1-[(acridin-9-yl)methyl]-1′-butyl-4,4′-bipyridinium dibromide]?
A: damage sensitive to FPG protein with increase in the time of irradiation [1]: increases; generation of single strand breaks (SSB) with irradiation time [1]: No significant increase; K (DNA association constant) ([2]; 2 mM NaCl): 924000 M⁻¹; K (DNA association constant) ([2]; 100 mM NaCl): 101000 M⁻¹

Q: Which “K (DNA association constant)” value ([2]; 2 mM NaCl) does the source give for “bis-1,1′-[(acridin-9-yl)methyl]-4,4′-bipyridinium dibromide” here?
A: 1.3e+06 M⁻¹

Q: And the “K (DNA association constant)” value ([2]; 100 mM NaCl)?
A: 390000 M⁻¹
